From patent publication US20250313569A1, “Pharmaceutical Compounds And Compositions As Modulators Of MAS-Related G-Protein Receptor X2” (Enanta Pharmaceuticals, Inc., priority 2024, published 2025)

Biological target: T1, human MRGPRX2 (Homo sapiens, UniProt Q96LB1)
T1 construct: expressed in transfected cells; host or cells: HEK293
T1 sequence (Q96LB1 1-330): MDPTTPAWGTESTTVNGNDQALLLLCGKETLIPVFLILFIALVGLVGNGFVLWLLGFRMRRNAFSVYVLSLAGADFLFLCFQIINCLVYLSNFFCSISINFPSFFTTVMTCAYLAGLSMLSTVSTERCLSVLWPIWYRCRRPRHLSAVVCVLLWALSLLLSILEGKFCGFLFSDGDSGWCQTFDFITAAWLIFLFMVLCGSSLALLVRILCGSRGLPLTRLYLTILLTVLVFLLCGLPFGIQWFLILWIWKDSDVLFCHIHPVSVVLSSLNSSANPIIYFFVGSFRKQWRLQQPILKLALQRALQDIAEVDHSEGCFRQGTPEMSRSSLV
Assay: MRGPRX2 IP-1 Gq HTRF assay in HEK293 cells stably expressing human MRGPRX2, Cortistatin-14 at EC75
Format: cell-based
Conditions: 2 hours at 37° C., cellular IP-1
Protocol: HEK293 cells stably expressing human MRGPRX2 were grown in Dulbecco's Modified Eagle Medium (DMEM) supplemented with 10% fetal bovine serum (FBS), 1% Glutamax, and 1 μg/mL of puromycin. Cells were maintained in a 37° C., 5% CO2 humidified incubator.
Cells were plated in a 384-well assay plate at a density of 20,000 cells per well overnight. Compounds were solubilized at 10 mM in DMSO and added as a 10-point curve using an ECHO acoustic liquid handler. On the day of the assay, Cortistatin-14 was diluted in assay buffer (provided by IP-One-Gq-HTRF kit purchased from Cisbio, 62IPAPEJ) and added to the assay plate at a final concentration corresponding to the predetermined EC75. Plates were incubated at 37° C. for 2 hours prior to addition of HTRF detection reagents per the manufacturer's instructions. The plates were read on a Perkin Elmer Envision plate reader. The HTRF ratio and cellular IP-1 levels were calculated. XLfit was used to calculate an EC50 value for each compound using a 4-parameter logistic curve fitting model. EC50 ranges are reported as follows: A<100 nM; B 0.1-1 μM; C>1 μM.

| Compound | EC50 |
| --- | --- |
| CS(=O)(=O)Nc1cccc(C(=O)N[C@H]2CC(N(C(=O)C3CC3)c3cc(C(F)(F)F)nc4ccc(Cl)cc34)CN(C(=O)C3CC3)C2)c1 (stereo partly shown) [Example 18] | 100 to 1000 nM |
| CC(=O)N1C[C@@H](NC(=O)c2cn(CC(F)(F)F)nn2)C[C@@H](Nc2cc(C(F)(F)F)nc3ccc(Cl)cc23)C1 [Example 33] | 100 to 1000 nM |
| COCC(=O)N1C[C@@H](NC(=O)c2cccc(NS(C)(=O)=O)c2)C[C@@H](Nc2cc(C(F)(F)F)nc3ccc(Cl)cc23)C1 [Example 14] | < 100 nM |
| CS(=O)(=O)Nc1cccc(C(=O)N[C@@H]2CNC[C@H](Nc3ccc(C#N)c(C(F)(F)F)c3)C2)c1 [Example 45] | > 1000 nM |
| CC(=O)N1C[C@@H](NC(=O)c2cn(C(F)F)nc2C(F)F)C[C@@H](Nc2cc(C(F)(F)F)nc3ccc(Cl)cc23)C1 [Example 59] | < 100 nM |
| CS(=O)(=O)Nc1cccc(C(=O)N[C@H]2CC(Nc3cc(C(F)(F)F)nc4ccc(Cl)cc34)CN(C(=O)c3cccnc3)C2)c1 (stereo partly shown) [Example 19] | 100 to 1000 nM |
| CS(=O)(=O)Nc1cccc(C(=O)N[C@H]2CC(Nc3cc(C(F)(F)F)nc4ccc(Cl)cc34)CN(C(=O)C3CCC3)C2)c1 (stereo partly shown) [Example 17] | 100 to 1000 nM |
| CC(=O)N1C[C@@H](NC(=O)c2cnn(C(F)F)c2)C[C@@H](Nc2cc(C(F)(F)F)nc3ccc(Cl)cc23)C1 [Example 40] | < 100 nM |
| CC(=O)N1C[C@H](Nc2cc(C(F)(F)F)nc3ccc(Cl)cc23)C[C@H](N(C)C(=O)c2cnn(C)c2)C1 [Example 47] | > 1000 nM |
| CN1C[C@@H](NC(=O)c2cccc(NS(C)(=O)=O)c2)C[C@@H](Nc2cc(C(F)(F)F)nc3ccccc23)C1 [Example 51] | > 1000 nM |
| CS(=O)(=O)Nc1cccc(C(=O)N[C@@H]2CNC[C@H](Nc3cc(C(F)(F)F)nc4ccc(Cl)cc34)C2)c1 [Example 7] | > 1000 nM |
| CC(=O)N1C[C@@H](NC(=O)c2cnn(-c3ccc(F)cc3)c2)C[C@@H](Nc2cc(C(F)(F)F)nc3ccc(Cl)cc23)C1 [Example 70] | 100 to 1000 nM |
| CC(=O)N1C[C@@H](NC(=O)c2cnn(C)c2C)C[C@@H](Nc2cc(C(F)(F)F)nc3ccc(Cl)cc23)C1 [Example 39] | 100 to 1000 nM |
| CCn1cc(C(=O)N[C@H]2C[C@@H](Nc3cc(C(F)(F)F)nc4ccc(Cl)cc34)CN(C(C)=O)C2)cn1 [Example 31] | < 100 nM |
| CS(=O)(=O)Nc1cccc(C(=O)N[C@H]2C[C@@H](Nc3cc(C(F)(F)F)nc4ccc(Cl)cc34)CN(CC(F)F)C2)c1 [Example 73] | < 100 nM |
| CS(=O)(=O)Nc1cccc(-c2cn([C@@H]3CNC[C@H](Nc4cc(C(F)(F)F)nc5ccc(Cl)cc45)C3)nn2)c1 [Example 54, N-(3-(1-((3S,5R)-5-((6-Chloro-2-(trifluoromethyl)quinolin-4-yl)amino)piperidin-3-yl)-1H-1,2,3-triazol-4-yl)phenyl) methanesulfonamide] | 100 to 1000 nM |

| Compound | EC50 |
| --- | --- |
| O=C(N[C@H]1C[C@@H](Nc2cc(C(F)(F)F)nc3ccc(Cl)cc23)CS(=O)(=O)C1)c1ccc(F)cc1 [Example 140] | > 1000 nM |
| CC(=O)N1C[C@@H](NC(=O)c2ccc(OC(F)(F)F)cc2)C[C@@H](Nc2cc(C(F)(F)F)nc3ccc(Cl)cc23)C1 [Example 66] | 100 to 1000 nM |
| CS(=O)(=O)Nc1cccc(NC(=O)[C@@H]2COC[C@H](Nc3cc(C(F)(F)F)nc4ccc(Cl)cc34)C2)c1 [Example 53] | < 100 nM |
| CC(=O)N1C[C@@H](NC(=O)c2cccc(NS(C)(=O)=O)c2)C[C@@H](Nc2ccc(C#N)c(C(F)(F)F)c2)C1 [Example 46] | > 1000 nM |
| CS(=O)(=O)Nc1cccc(C(=O)N[C@H]2CC(Nc3cc(C(F)(F)F)nc4ccc(Cl)cc34)CN(C(=O)Nc3ccccc3)C2)c1 (stereo partly shown) [Example 20] | 100 to 1000 nM |
| CC(=O)N1C[C@@H](NC(=O)c2cnn(C(C)C)c2)C[C@@H](Nc2cc(C(F)(F)F)nc3ccc(Cl)cc23)C1 [Example 38] | 100 to 1000 nM |
| CC(=O)N1C[C@@H](NC(=O)c2cnn(CC3CC3)c2)C[C@@H](Nc2cc(C(F)(F)F)nc3ccc(Cl)cc23)C1 [Example 61] | < 100 nM |
| CC(=O)N1C[C@@H](NC(=O)c2ccc(C)nc2)C[C@@H](Nc2cc(C(F)(F)F)nc3ccc(Cl)cc23)C1 [Example 62] | 100 to 1000 nM |
| CN1C[C@@H](NC(=O)c2cccc(NS(C)(=O)=O)c2)C[C@@H](N(C)c2cc(C(F)(F)F)nc3ccccc23)C1 [Example 52] | > 1000 nM |
| CC(=O)N1C[C@@H](NC(=O)c2cccc(S(C)(=O)=O)c2)C[C@@H](Nc2cc(C(F)(F)F)nc3ccc(Cl)cc23)C1 [Example 28] | < 100 nM |
| CC(=O)N1C[C@H](Nc2cc(C(F)(F)F)nc3ccc(Cl)cc23)C[C@H](n2cc(-c3cccc(NS(C)(=O)=O)c3)nn2)C1 [Example 55] | 100 to 1000 nM |
| CC(=O)N1C[C@@H](NC(=O)c2cnn(C3CCCCC3)c2)C[C@@H](Nc2cc(C(F)(F)F)nc3ccc(Cl)cc23)C1 [Example 68] | < 100 nM |
| CC(C)(C)OC(=O)N1C[C@@H](NC(=O)c2cccc(NS(C)(=O)=O)c2)C[C@@H](Nc2cc(C(F)(F)F)nc3ccc(Cl)cc23)C1 [Example 6] | 100 to 1000 nM |
| CC(=O)N1C[C@@H](NC(=O)c2cc(F)cc(F)c2)C[C@@H](Nc2cc(C(F)(F)F)nc3ccc(Cl)cc23)C1 [Example 37] | 100 to 1000 nM |
| COc1cc(C(=O)N[C@H]2C[C@@H](Nc3cc(C(F)(F)F)nc4ccc(Cl)cc34)CN(C(C)=O)C2)ccc1OC1CC1 [Example 60] | 100 to 1000 nM |

More lines, now with the values ahead:

| EC50 | Compound |
| --- | --- |
| 100 to 1000 nM | CC(C)(C)C(=O)N1C[C@@H](NC(=O)c2cccc(NS(C)(=O)=O)c2)C[C@@H](Nc2cc(C(F)(F)F)nc3ccc(Cl)cc23)C1 (racemic) [Example 15] |
| 100 to 1000 nM | CC(=O)N1C[C@@H](NC(=O)c2ccc(F)c(F)c2)C[C@@H](Nc2cc(C(F)(F)F)nc3ccc(Cl)cc23)C1 [Example 26] |
| 100 to 1000 nM | CC(=O)N1C[C@@H](NC(=O)c2ccc(C(F)(F)F)cc2)C[C@@H](Nc2cc(C(F)(F)F)nc3ccc(Cl)cc23)C1 [Example 67] |
| < 100 nM | CC(=O)N1CC(Nc2cc(C(F)(F)F)nc3ccc(F)cc23)C[C@H](NC(=O)c2cccc(NS(C)(=O)=O)c2)C1 (stereo partly shown) [Example 21] |
| > 1000 nM | CC(=O)N1C[C@@H](NC(=O)c2cnn(C3CCNCC3)c2C)C[C@@H](Nc2cc(C(F)(F)F)nc3ccc(Cl)cc23)C1 [Example 34] |
| 100 to 1000 nM | CNCC(=O)N1C[C@@H](NC(=O)c2cccc(NS(C)(=O)=O)c2)C[C@@H](Nc2cc(C(F)(F)F)nc3ccc(Cl)cc23)C1 [Example 12] |
| 100 to 1000 nM | CC(=O)N1C[C@@H](NC(=O)c2ccccc2F)C[C@@H](Nc2cc(C(F)(F)F)nc3ccc(Cl)cc23)C1 [Example 35] |
| 100 to 1000 nM | CC(=O)N1C[C@@H](NC(=O)c2cnn(-c3ccccc3)c2)C[C@@H](Nc2cc(C(F)(F)F)nc3ccc(Cl)cc23)C1 [Example 69] |
| 100 to 1000 nM | CN(C)CC(=O)N1C[C@@H](NC(=O)c2cccc(NS(C)(=O)=O)c2)C[C@@H](Nc2cc(C(F)(F)F)nc3ccc(Cl)cc23)C1 [Example 13] |
| > 1000 nM | CC(=O)N1C[C@@H](Nc2nnc(-c3ccc(F)cc3)o2)C[C@@H](Nc2cc(C(F)(F)F)nc3ccc(Cl)cc23)C1 [Example 71] |
| 100 to 1000 nM | CS(=O)(=O)Nc1cccc(C(=O)N[C@H]2CC(Nc3cc(C(F)(F)F)nc4ccc(Cl)cc34)CN(C(=O)C3CC3)C2)c1 (stereo partly shown) [Example 16] |
| < 100 nM | CC(=O)N1C[C@@H](NC(=O)c2ccc(F)cc2)C[C@@H](Nc2cc(C(F)(F)F)nc3ccc(Cl)cc23)C1 [Example 23] |
| < 100 nM | CC(=O)N1C[C@@H](NC(=O)c2cccc(F)c2)C[C@@H](Nc2cc(C(F)(F)F)nc3ccc(Cl)cc23)C1 [Example 36] |
| < 100 nM | COc1cc(C(=O)N[C@H]2C[C@@H](Nc3cc(C(F)(F)F)nc4ccc(Cl)cc34)CN(C(C)=O)C2)cc2cn(C(F)F)nc12 [Example 56] |
| 100 to 1000 nM | CC(=O)N1C[C@@H](NC(=O)c2ccc(F)cc2F)C[C@@H](Nc2cc(C(F)(F)F)nc3ccc(Cl)cc23)C1 [Example 27] |
